Test results: PMC7670640 (Pharmacology Research & Perspectives, 2020)

Assay: Multiple ascending dose part
Format: in vivo, human
Details: for AUC / Cmax / Tmax: human, plasma, oral, multiple‐dose; for AUC: AUC0‐24, geometric mean (%CVb); for Cmax: geometric mean (%CVb); for Tmax: median (range)

SMILES: C=C(C)[C@@H]1CC[C@]2(NCCN3CCS(=O)(=O)CC3)CC[C@]3(C)[C@H](CC[C@@H]4[C@@]5(C)CC=C(C6=CC[C@@](CF)(C(=O)O)CC6)C(C)(C)[C@@H]5CC[C@]43C)[C@@H]12 [GSK3640254]
- AUC (50 mg, Day 1, 50 mg, N = 6): 2.86 µg·h/mL
- Cmax (50 mg, Day 1, 50 mg, N = 6): 0.215 µg/mL
- Tmax (50 mg, Day 1, 50 mg, N = 6): 3.8 h
- AUC (100 mg, Day 1, 100 mg, N = 6): 6.8 µg·h/mL
- Cmax (100 mg, Day 1, 100 mg, N = 6): 0.536 µg/mL
- Tmax (100 mg, Day 1, 100 mg, N = 6): 4.3 h
- AUC (320 mg, Day 1, 320 mg, N = 7): 13.5 µg·h/mL
- Cmax (320 mg, Day 1, 320 mg, N = 7): 1.04 µg/mL
- Tmax (320 mg, Day 1, 320 mg, N = 7): 4 h
- increase in exposure upon repeat dosing (in vivo): two‐ to three‐fold
- dose‐proportionality of Cmax and AUC (multiple‐dose administration 50‐320 mg): trend toward less than dose‐proportional increases in exposure
- time to steady state (repeat once‐daily dosing): ≤ 8 days
- attainment of steady state (slope of trough concentration vs time close to zero) (trough concentrations from all participants): ≤ 8 days
